Values of other authors as cited in patent US8003635B2, “Superoxide dismutase mimics for the treatment of ocular disorders and diseases” (Novartis AG, priority 2001, dated 2011).

Experiments:
[1] = test system: light-induced retinal damage; conditions: albino rats
onset of diabetes = conditions: diabetogenic T-cell clone

In the case of `CC1(C)CC(O)CC(C)(C)N1[O]` [4-hydroxy-2,2,6,6-tetramethylpiperidine-1-oxyl], the light-induced retinal damage [1] is listed as “inhibited light-induced retinal damage”.

For `CCN1C=CC=C/C1=C1/C2=NC(=C(c3cccc[n+]3CC)C3=NC(=C(c4cccc[n+]4CC)c4ccc([n-]4)C(c4cccc[n+]4CC)=C4C=CC1=N4)C=C3)C=C2.[Cl-].[Cl-].[Cl-].[Cl-].[Cl-].[Mn+3]` [AEOL10113], the onset of diabetes (onset of diabetes) is given as “delay the onset of diabetes”.

In the case of `[Cl-].[Cl-].[Mn+2].c1cc2nc(c1)CN[C@@H]1CCCC[C@H]1NCCN[C@@H]1CCCC[C@H]1NC2` [M40403], the “vascular and neural dysfunction” value (diabetic rats) is listed as “prevented vascular and neural dysfunction”.
